Assay results taken from patent publication US12378224B2 (Dong-A Socio Holdings Co., Ltd., priority 2016, dated 2025).

target: human c-MER catalytic domain (Homo sapiens (Human), UniProt Q12866); experiment: TR-FRET Kinase Activity Biochemical Assay (LanthaScreen); conditions: 10 uM ATP, 1 hour, kinase not given
Method in brief: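 Recombinant human c-MER catalytic domain phosphorylated fluorescein-labeled poly-GT substrate. The reaction was stopped with 10 mM EDTA, then 2 nM Tb-labeled anti-phosphotyrosine antibody was added for 30 min. Kinase activity was taken from the 495/520 nm TR-FRET emission ratio after 340 nm excitation.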

human c-MER catalytic domain, sequence (Q12866 587-858): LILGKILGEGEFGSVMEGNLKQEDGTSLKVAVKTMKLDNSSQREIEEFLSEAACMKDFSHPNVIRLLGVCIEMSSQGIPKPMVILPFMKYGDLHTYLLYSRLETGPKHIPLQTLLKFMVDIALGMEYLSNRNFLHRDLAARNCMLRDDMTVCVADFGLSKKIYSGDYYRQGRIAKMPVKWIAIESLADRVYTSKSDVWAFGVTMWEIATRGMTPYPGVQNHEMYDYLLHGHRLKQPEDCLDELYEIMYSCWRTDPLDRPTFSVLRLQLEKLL

Row | Compound | IC50
1 | CN(C)CCCOc1ccc2ccc(OC(=O)N3CC[C@@H](NC(=O)c4cc(-c5cnn(C)c5)cnc4N)C3)cc2c1 [Example 295, 7-(3-(dimethylamino)propoxy)naphthalen-2-yl (R)-3-(2-amino-5-(1-methyl-1H-pyrazol-4-yl)nicotinamido)pyrrolidine-1-carboxylate] | 10 to 100 nM
2 | CN(C)CCOc1ccc2ccc(OC(=O)N3CC[C@@H](NC(=O)c4cc(-c5cnn(C)c5)cnc4N)C3)cc2c1 [Example 296, 7-(2-(dimethylamino)ethoxy)naphthalen-2-yl (R)-3-(2-amino-5-(1-methyl-1H-pyrazol-4-yl)nicotinamido)pyrrolidine-1-carboxylate] | 10 to 100 nM
3 | CN1CCC(Oc2ccc3ccc(OC(=O)N4CC[C@@H](NC(=O)c5cc(-c6cnn(C)c6)cnc5N)C4)cc3c2)CC1 [Example 297, 7-((1-methylpiperidin-4-yl)oxy)naphthalen-2-yl (R)-3-(2-amino-5-(1-methyl-1H-pyrazol-4-yl)nicotinamido)pyrrolidine-1-carboxylate] | 100 to 1000 nM
4 | CN(C)CCOc1ccc2cc(OC(=O)N3CC[C@@H](NC(=O)c4cc(-c5cnn(C)c5)cnc4N)C3)ccc2c1 [Example 300, 6-(2-(dimethylamino)ethoxy)naphthalen-2-yl (R)-3-(2-amino-5-(1-methyl-1H-pyrazol-4-yl)nicotinamido)pyrrolidine-1-carboxylate] | 100 to 1000 nM
5 | CN(C)CCCOc1ccc2cc(OC(=O)N3CC[C@@H](NC(=O)c4cc(-c5cnn(C)c5)cnc4N)C3)ccc2c1 [Example 301, 6-(3-(dimethylamino)propoxy)naphthalen-2-yl (R)-3-(2-amino-5-(1-methyl-1H-pyrazol-4-yl)nicotinamido)pyrrolidine-1-carboxylate] | 100 to 1000 nM
6 | Cn1cc(-c2cnc(N)c(C(=O)N[C@@H]3CCN(C(=O)Oc4ccc5cc(OC6CCNCC6)ccc5c4)C3)c2)cn1 [Example 302, 6-(piperidin-4-yloxy)naphthalen-2-yl (R)-3-(2-amino-5-(1-methyl-1H-pyrazol-4-yl)nicotinamido)pyrrolidine-1-carboxylate] | 10 to 100 nM
7 | Cn1cc(-c2cnc(N)c(C(=O)N[C@@H]3CCN(C(=O)Oc4cccc(OCC5CCNCC5)c4)C3)c2)cn1 [Example 304] | 100 to 1000 nM
8 | Cn1cc(-c2cnc(N)c(C(=O)N[C@@H]3CCN(C(=O)Oc4cccc(-c5ccc(CNCC6CNC6)cc5)c4)C3)c2)cn1 [Example 309, 4′-(((azetidin-3-ylmethyl)amino)methyl)-[1,1′-biphenyl]-3-yl (R)-3-(2-amino-5-(1-methyl-1H-pyrazol-4-yl)nicotinamido)pyrrolidine-1-carboxylate] | 10 to 100 nM
9 | Cn1cc(-c2cnc(N)c(C(=O)N[C@@H]3CCN(C(=O)Oc4cccc(-c5ccc(CN6CCC(N)CC6)cc5)c4)C3)c2)cn1 [Example 317, 4′-((4-aminopiperidin-1-yl)methyl)-[1,1′-biphenyl]-3-yl (R)-3-(2-amino-5-(1-methyl-1H-pyrazol-4-yl)nicotinamido)pyrrolidine-1-carboxylate] | 10 to 100 nM
10 | Cn1cc(-c2cnc(N)c(C(=O)N[C@@H]3CCN(C(=O)Oc4cccc(-c5ccc(CNCC(=O)O)cc5)c4)C3)c2)cn1 [Example 326, (R)-((3′-((3-(2-amino-5-(1-methyl-1H-pyrazol-4-yl)nicotinamido)pyrrolidine-1-carbonyl)oxy)-[1,1′-biphenyl]-4-yl)methyl)glycine] | 100 to 1000 nM
11 | Cn1cc(-c2cnc(N)c(C(=O)N[C@@H]3CCN(C(=O)Oc4cccc(-c5ccc(CN6CC[C@@H](N)C6)cc5)c4)C3)c2)cn1 [Example 330, 4′-(((R)-3-aminopyrrolidin-1-yl)methyl)-[1,1′-biphenyl]-3-yl (R)-3-(2-amino-5-(1-methyl-1H-pyrazol-4-yl)nicotinamido)pyrrolidine-1-carboxylate] | 10 to 100 nM
12 | Cn1cc(-c2cnc(N)c(C(=O)N[C@@H]3CCN(C(=O)Oc4cccc(-c5ccc(CN6CC[C@H](N)C6)cc5)c4)C3)c2)cn1 [Example 331, 4′-(((S)-3-aminopyrrolidin-1-yl)methyl)-[1,1′-biphenyl]-3-yl (R)-3-(2-amino-5-(1-methyl-1H-pyrazol-4-yl)nicotinamido)pyrrolidine-1-carboxylate] | 10 to 100 nM
13 | Cn1cc(-c2cnc(N)c(C(=O)N[C@@H]3CCN(C(=O)Oc4cccc(-c5ccc(CN6CCC[C@H](N)C6)cc5)c4)C3)c2)cn1 [Example 332, 4′-(((S)-3-aminopiperidin-1-yl)methyl)-[1,1′-biphenyl]-3-yl (R)-3-(2-amino-5-(1-methyl-1H-pyrazol-4-yl)nicotinamido)pyrrolidine-1-carboxylate] | 10 to 100 nM
14 | Cn1cc(-c2cnc(N)c(C(=O)N[C@@H]3CCN(C(=O)Oc4cccc(-c5ccc(CN6CCCC6)cc5)c4)C3)c2)cn1 [Example 333, 4′-(pyrrolidin-1-ylmethyl)-[1,1′-biphenyl]-3-yl (R)-3-(2-amino-5-(1-methyl-1H-pyrazol-4-yl)nicotinamido)pyrrolidine-1-carboxylate] | 10 to 100 nM
15 | Cn1cc(-c2cnc(N)c(C(=O)N[C@@H]3CCN(C(=O)Oc4cccc(-c5ccc(CN6CCCCC6)cc5)c4)C3)c2)cn1 [Example 334, 4′-(piperidin-1-ylmethyl)-[1,1′-biphenyl]-3-yl (R)-3-(2-amino-5-(1-methyl-1H-pyrazol-4-yl)nicotinamido)pyrrolidine-1-carboxylate] | 100 to 1000 nM
16 | Cn1cc(-c2cnc(N)c(C(=O)N[C@@H]3CCN(C(=O)Oc4cccc(-c5ccc(CN6CCOCC6)cc5)c4)C3)c2)cn1 [Example 335, 4′-(morpholinomethyl)-[1,1′-biphenyl]-3-yl (R)-3-(2-amino-5-(1-methyl-1H-pyrazol-4-yl)nicotinamido)pyrrolidine-1-carboxylate] | 100 to 1000 nM
17 | Cn1cc(-c2cnc(N)c(C(=O)N[C@@H]3CCN(C(=O)Oc4cccc(-c5cccc(CN6CC[C@@H](N)C6)c5)c4)C3)c2)cn1 [Example 336, 3′-(((R)-3-aminopyrrolidin-1-yl)methyl)-[1,1′-biphenyl]-3-yl (R)-3-(2-amino-5-(1-methyl-1H-pyrazol-4-yl)nicotinamido)pyrrolidine-1-carboxylate] | 100 to 1000 nM
18 | Cn1cc(-c2cnc(N)c(C(=O)N[C@@H]3CCN(C(=O)Oc4cccc(-c5cccc(CN6CCC[C@@H](N)C6)c5)c4)C3)c2)cn1 [Example 338, 3′-(((R)-3-aminopiperidin-1-yl)methyl)-[1,1′-biphenyl]-3-yl (R)-3-(2-amino-5-(1-methyl-1H-pyrazol-4-yl)nicotinamido)pyrrolidine-1-carboxylate] | 10 to 100 nM
19 | Cn1cc(-c2cnc(N)c(C(=O)N[C@@H]3CCN(C(=O)Oc4cccc(-c5cccc(CN6CCC[C@H](N)C6)c5)c4)C3)c2)cn1 [Example 339, 3′-(((S)-3-aminopiperidin-1-yl)methyl)-[1,1′-biphenyl]-3-yl (R)-3-(2-amino-5-(1-methyl-1H-pyrazol-4-yl)nicotinamido)pyrrolidine-1-carboxylate] | 100 to 1000 nM
20 | Cn1cc(-c2cnc(N)c(C(=O)N[C@@H]3CCN(C(=O)Oc4cccc(-c5cccc(CN6CCC(N)CC6)c5)c4)C3)c2)cn1 [Example 340, 3′-((4-aminopiperidin-1-yl)methyl)-[1,1′-biphenyl]-3-yl (R)-3-(2-amino-5-(1-methyl-1H-pyrazol-4-yl)nicotinamido)pyrrolidine-1-carboxylate] | 100 to 1000 nM
21 | Cn1cc(-c2cnc(N)c(C(=O)N[C@@H]3CCN(C(=O)Oc4cccc(-c5cccc(CN6CCCNCC6)c5)c4)C3)c2)cn1 [Example 341, 3′-((1,4-diazepan-1-yl)methyl)-[1,1′-biphenyl]-3-yl (R)-3-(2-amino-5-(1-methyl-1H-pyrazol-4-yl)nicotinamido)pyrrolidine-1-carboxylate] | 10 to 100 nM
22 | Cn1cc(-c2cnc(N)c(C(=O)NC3CN(C(=O)c4ccc(-c5ccccc5)cc4)C3)c2)cn1 [Example 344, N-(1-([1,1′-biphenyl]-4-carbonyl)azetidin-3-yl)-2-amino-5-(1-methyl-1H-pyrazol-4-yl)nicotinamide] | > 1000 nM
23 | Cn1cc(-c2cnc(N)c(C(=O)N[C@H]3CCN(C(=O)c4ccc(-c5ccccc5)cc4)C3)c2)cn1 [Example 346, (S)—N-(1-([1,1′-biphenyl]-4-carbonyl)pyrrolidin-3-yl)-2-amino-5-(1-methyl-1H-pyrazol-4-yl)nicotinamide] | > 1000 nM
24 | Cn1cc(-c2cnc(N)c(C(=O)N[C@@H]3CCCN(C(=O)c4ccc(-c5ccccc5)cc4)C3)c2)cn1 [Example 347, (R)—N-(1-([1,1′-biphenyl]-4-carbonyl)piperidin-3-yl)-2-amino-5-(1-methyl-1H-pyrazol-4-yl)nicotinamide] | > 1000 nM
25 | Cn1cc(-c2cnc(N)c(C(=O)N[C@H]3CCCN(C(=O)c4ccc(-c5ccccc5)cc4)C3)c2)cn1 [Example 348, (S)—N-(1-([1,1′-biphenyl]-4-carbonyl)piperidin-3-yl)-2-amino-5-(1-methyl-1H-pyrazol-4-yl)nicotinamide] | > 1000 nM
26 | Cn1cc(-c2cnc(N)c(C(=O)N[C@@H]3CCN(C(=O)c4ccc(-c5ccccc5C=O)cc4)C3)c2)cn1 [Example 355, (R)-2-amino-N-(1-(2′-formyl-[1,1′-biphenyl]-4-carbonyl)pyrrolidin-3-yl)-5-(1-methyl-1H-pyrazol-4-yl)nicotinamide] | 10 to 100 nM
27 | Cn1cc(-c2cnc(N)c(C(=O)N[C@@H]3CCN(C(=O)c4ccc(-c5cccnc5)cc4)C3)c2)cn1 [Example 356, (R)-2-amino-5-(1-methyl-1H-pyrazol-4-yl)-N-(1-(4-(pyridin-3-yl)benzoyl)pyrrolidin-3-yl)nicotinamide] | 100 to 1000 nM
28 | Cn1cc(-c2cnc(N)c(C(=O)N[C@@H]3CCN(C(=O)c4ccc(-c5c(F)cccc5F)cc4)C3)c2)cn1 [Example 364, (R)-2-amino-N-(1-(2′,6′-difluoro-[1,1′-biphenyl]-4-carbonyl)pyrrolidin-3-yl)-5-(1-methyl-1H-pyrazol-4-yl)nicotinamide] | 10 to 100 nM
29 | Cn1cc(-c2cnc(N)c(C(=O)N[C@@H]3CCN(C(=O)c4ccc(-c5ccc(C(F)(F)F)cc5C(F)(F)F)cc4)C3)c2)cn1 [Example 374, (R)-2-amino-N-(1-(2′,4′-bis(trifluoromethyl)-[1,1′-biphenyl]-4-carbonyl)pyrrolidin-3-yl)-5-(1-methyl-1H-pyrazol-4-yl)nicotinamide] | > 1000 nM
